We go through one compound from US6348483B1, “Use of derivatives of methylene-bis-oxazolidine and compositions obtained thereby” (Air Liquide Sante (International), priority 1998, dated 2002).

In this experiment the test system is Chlorella fusca (CF). In words: Algistatic finish (SM 023) of pure acrylate house paint. It is filed as cell-based. Particulars: without and with stress due to leaching; active compound concentration of 0.2% by weight based on house paint and test substance. As to the method:
In separate batches, the test concentrations of the active compounds/products were incorporated into the house paint, and the fungicidal and/or algistatic finish was determined using the stated test methods.
Incorporation and testing were carried out according to the methods SM 022 and SM 023 below.
This laboratory method was employed for determining the resistance of house coatings to colonization by algae. For this method, house coatings on standardized paper are used as test substrate and Chlorella fusca is used as test alga. It is furthermore possible to use pure cultures of other algae species of practical relevance.
The experiments were carried out in Petri dishes on agar nutrient media.
50 g of the material to be finished were, in separate batches, mixed with various concentrations of the algicide to be examined and homogenized for 3-5 min using a basket stirrer.
Paper carrier materials having the dimensions 90×270 mm (Schleicher & Schüll No. 2589 B/X 24078) were coated with the test material. The paint and/or render samples were coated to a wet-layer thickness of 250 μm by knife coating. […] In the case of renders, the layer thickness depends, as in practice, on the particle size. The coated carrier materials, hereinbelow referred to as test bodies, were subsequently dried in a horizontal position for five days.
[…] The cross section of the container for the watering in the direction of flow was 1000±500 cm^2.
From the pretreated test bodies, three sample bodies having a diameter of 5 cm were punched out and sterilized in a Co^60 source using at least 10 kGy.
Aseptically, the samples were placed onto the algae nutrient media, and the centre of the sample was inoculated with 5 ml of each algae suspension.
The mixture of the algae suspensions was spread on the surface using a Drigalski spatula or an offset sterile glass rod.
During the growth phase at 22±2° C., the coated samples in the Petri dishes were irradiated with light of an intensity of about 1000 Lux (customary fluorescent tubes, type D 67 daylight). A cycle of in each case 12 hours of irradiation and 12 hours of storage in the dark was used.
The colonization of the samples by algae was examined and evaluated after two weeks. Evaluation was carried out visually. The evaluation of the samples was based on the following evaluation scale:
No growth of algae on the test bodies
Formation of an inhibitory zone or growth of algae on the nutrient medium up to the edge of the test bodies
Visible colonization of the test body by algae

`COC(=O)Nc1nc2ccccc2[nH]1` [carbendazim, Methyl 1H-benzimidazol-2-ylcarbamate]: the “Algicidal action (in words)” value is “no algicidal action”.
